Test results published in patent publication US8030547B2, “Gene coding for acetolactate synthase” (priority 2002, dated 2011).
Read-outs that look alike come from different tables or passages of the source.

Experiments:
Format in all cases: biochemical, rice (Oryza sativa var. Kinmaze)
[1] = target: T1, GST fusion P171H mutant ALS protein (Oryza sativa subsp. japonica, UniProt Q6K2E8, P171H); assay: Herbicide sensitivity of ALS protein expressed in E. coli (crude enzyme solution), P171H; settings: for RS ratio: P171H mutant vs wild type
T1 construct: an expression vector having the full-length wild type ALS cDNA incorporated into the Eco RI site of pGEX-2T; made in house; host or cells: E. coli JM109, pGEX-2T(ALS P171H mutant); crude supernatant
T1 sequence (Q6K2E8 44-644 P171H): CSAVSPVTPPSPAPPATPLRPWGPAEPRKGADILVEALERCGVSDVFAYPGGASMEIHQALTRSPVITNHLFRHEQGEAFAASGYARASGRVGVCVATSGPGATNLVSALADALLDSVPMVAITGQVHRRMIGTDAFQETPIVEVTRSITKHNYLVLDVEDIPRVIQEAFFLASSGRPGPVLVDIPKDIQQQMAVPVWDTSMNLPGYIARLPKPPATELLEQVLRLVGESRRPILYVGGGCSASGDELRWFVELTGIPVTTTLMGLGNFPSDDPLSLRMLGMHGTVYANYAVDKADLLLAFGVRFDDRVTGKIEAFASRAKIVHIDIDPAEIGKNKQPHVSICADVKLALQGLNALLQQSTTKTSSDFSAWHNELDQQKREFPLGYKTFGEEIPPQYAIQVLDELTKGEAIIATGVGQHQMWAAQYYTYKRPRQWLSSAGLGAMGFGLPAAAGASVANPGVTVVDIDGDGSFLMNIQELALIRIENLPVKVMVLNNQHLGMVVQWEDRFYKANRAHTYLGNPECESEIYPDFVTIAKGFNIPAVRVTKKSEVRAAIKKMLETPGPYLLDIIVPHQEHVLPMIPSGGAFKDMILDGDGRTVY
Method: (§1) ALS activity resulting from the mutant ALS protein contained in the eluted fractions apportioned into each test tube for apportioning was measured as follows. A reaction solution to be used in a measurement reaction was prepared by mixing an eluted fraction to be measured with a solution comprising 20 mM sodium pyruvate, 0.5 mM TPP, 0.5 mM MgCl2, 10 μM FAD and 20 mM potassium phosphate buffer (pH 7.5). One ml of this reaction solution was used. After the eluted fraction to be measured was added, the measurement reaction was performed at 30° C. for 40 to 60 minutes. Then, the reaction was stopped by addition of 0.1 ml of 6N sulfuric acid (or 0.25 N sodium hydroxide).
(§2) After the reaction was stopped, the reaction solution was incubated at 60° C. for 10 minutes, thereby converting acetolactate contained in the reaction solution to acetoin.
(§3) Then, to quantify acetoin contained in the reaction solution, 1 ml of 0.5% (w/v) creatine and 1 ml of 5% (w/v) α-naphthol dissolved in 2.5 N sodium hydroxide was added to the reaction solution, followed by incubation at 37° C. for 10 minutes. Acetoin was then quantified by color comparison of the absorbance (at 525 nm) of the reaction solution, thereby evaluating ALS activity. In addition, since the reaction solution contained a small amount of sodium pyruvate, reaction time 0 was used as control.
(§4) E. coli transformed with pGEX-2T(ALS-wild) constructed in Example 3(5), E. coli transformed with pGEX-2T(ALS-W548L mutant) constructed in Example 5, E. coli transformed with pGEX-2T(ALS-S627I mutant) constructed in Example 5, E. coli transformed with pGEX-2T(ALS P171H mutant) constructed in Example 6, E. coli transformed with pGEX-2T(ALS R172S mutant) constructed in Example 6, E. coli transformed with pGEX-2T(ALS P171H, R172S mutant) constructed in Example 7, E. coli transformed with pGEX-2T(ALS-P171H, W548L mutant) constructed in Example 8, E. coli transformed with pGEX-2T(ALS-P171H, S627I mutant) constructed in Example 8, and E. coli transformed with pGEX-2T(ALS-P171H, W548L, S627I mutant) constructed in Example 9 were respectively shake-cultured (pre-culture) at 27° C. in 2 ml of LB liquid medium containing ampicillin. These types of E. coli were respectively cultured in 250 ml of LB liquid medium containing ampicillin using 1 ml of the pre-culture solution. After culturing overnight, 1 mM IPTG was added to the media, and then culturing was performed for a further 3 to 4 hours, so that the expression of GST fusion protein was induced. In addition, the cells were stored at −80° C. after washing.
(§5) Preparation and purification of ALS from E. coli were performed by the following method. First, the pellet of the transformant E. coli stored at −80° C. was suspended in ALS extraction buffer (potassium phosphate buffer (pH 7.5) containing 30% glycerol and 0.5 mM MgCl2). Specifically, 2.5 ml of the buffer was added to the pellet obtained from 50 ml of the culture solution. The suspension was subjected to ultrasonication (Heat Systems-Ultrasonics, Sonicator W-225R, micro chip, output control 8, interval of approximately 1 second, twice (40 seconds each)), and subjected to centrifugation at 15000×g, 4° C. for 20 minutes, thereby obtaining the supernatant as a crude enzyme solution.
(§6) Herbicide sensitivity of the wild type ALS protein and that of mutant ALS protein were examined using the 9 types of crude enzyme solutions obtained in Example 10. Herbicide sensitivity test was performed according to procedures almost the same as those in Example 2. However, in this example, reaction temperature was 37° C., reaction time was 30 minutes, and 10 mM valine was added to the reaction solution to inhibit ALS activity derived from E. coli. Further, three types of herbicides, bispyribac-sodium, pyrithiobac-sodium, and pyriminobac, were used as PC herbicides; chlorsulfuron was used as a sulfonylurea herbicide; and imazaquin was used as an imidazolinon herbicide. […]

[2] = target: T2, GST fusion R172S mutant ALS protein (Oryza sativa subsp. japonica, UniProt Q6K2E8, R172S); assay: Herbicide sensitivity of ALS protein expressed in E. coli (crude enzyme solution), R172S; settings: for RS ratio: R172S mutant vs wild type
T2 construct: an expression vector having the full-length wild type ALS cDNA incorporated into the Eco RI site of pGEX-2T; made in house; host or cells: E. coli JM109, pGEX-2T(ALS R172S mutant); crude supernatant
T2 sequence (Q6K2E8 44-644 R172S): as the sequence (Q6K2E8 44-644 P171H) above, with H128P, R129S counted along it
Method: as §1, §2, §3, §4, §5, §6

[3] = target: T3, GST fusion W548L mutant ALS protein (Oryza sativa subsp. japonica, UniProt Q6K2E8, W548L); assay: Herbicide sensitivity of ALS protein expressed in E. coli (crude enzyme solution), W548L; settings: for RS ratio: W548L mutant vs wild type
T3 construct: an expression vector having the full-length wild type ALS cDNA incorporated into the Eco RI site of pGEX-2T; made in house; host or cells: E. coli JM109, pGEX 2T(ALS-W548L mutant); crude supernatant
T3 sequence (Q6K2E8 44-644 W548L): as the sequence (Q6K2E8 44-644 P171H) above, with H128P, W505L counted along it
Method: as §1, §2, §3, §4, §5, §6

[4] = target: T4, GST fusion S627I mutant ALS protein (Oryza sativa subsp. japonica, UniProt Q6K2E8, S627I); assay: Herbicide sensitivity of ALS protein expressed in E. coli (crude enzyme solution), S627I; settings: for RS ratio: S627I mutant vs wild type
T4 construct: an expression vector having the full-length wild type ALS cDNA incorporated into the Eco RI site of pGEX-2T; made in house; host or cells: E. coli JM109, pGEX 2T(ALS-S627I mutant); crude supernatant
T4 sequence (Q6K2E8 44-644 S627I): as the sequence (Q6K2E8 44-644 P171H) above, with H128P, S584I counted along it
Method: as §1, §2, §3, §4, §5, §6

[5] = target: T5, GST fusion P171H/R172S mutant ALS protein (Oryza sativa subsp. japonica, UniProt Q6K2E8, P171H/R172S); assay: Herbicide sensitivity of ALS protein expressed in E. coli (crude enzyme solution), P171H/R172S; settings: for RS ratio: P171H/R172S mutant vs wild type; for Predicted RS ratio: product of RS ratios of the 1-point mutants
T5 construct: made in house; host or cells: E. coli JM109, pGEX-2T(ALS P171H, R172S mutant); crude supernatant
T5 sequence (Q6K2E8 44-644 P171H/R172S): as the sequence (Q6K2E8 44-644 P171H) above, with R129S counted along it
Method: as §1, §2, §3, §4, §5, §6

[6] = target: T6, GST fusion P171H/W548L mutant ALS protein (Oryza sativa subsp. japonica, UniProt Q6K2E8, P171H/W548L); assay: Herbicide sensitivity of ALS protein expressed in E. coli (crude enzyme solution), P171H/W548L; settings: for RS ratio: P171H/W548L mutant vs wild type; for Predicted RS ratio: product of RS ratios of the 1-point mutants
T6 construct: made in house; host or cells: E. coli, pGEX-2T(ALS-P171H, W548L mutant); crude supernatant
T6 sequence (Q6K2E8 44-644 P171H/W548L): as the sequence (Q6K2E8 44-644 P171H) above, with W505L counted along it
Method: as §1, §2, §3, §4, §5, §6

[7] = target: T7, GST fusion P171H/S627I mutant ALS protein (Oryza sativa subsp. japonica, UniProt Q6K2E8, P171H/S627I); assay: Herbicide sensitivity of ALS protein expressed in E. coli (crude enzyme solution), P171H/S627I; settings: for RS ratio: P171H/S627I mutant vs wild type; for Predicted RS ratio: product of RS ratios of the 1-point mutants
T7 construct: made in house; host or cells: E. coli, pGEX-2T(ALS-P171H, S627I mutant); crude supernatant
T7 sequence (Q6K2E8 44-644 P171H/S627I): as the sequence (Q6K2E8 44-644 P171H) above, with S584I counted along it
Method: as §1, §2, §3, §4, §5, §6

[8] = target: T8, GST fusion wild type ALS protein (Oryza sativa subsp. japonica, UniProt Q6K2E8); assay: Herbicide sensitivity of ALS protein expressed in E. coli (crude enzyme solution), wild type; settings: 37° C., 30 minutes, 10 mM valine, read-out: I50
T8 construct: an expression vector having the full-length wild type ALS cDNA incorporated into the Eco RI site of pGEX-2T; made in house; host or cells: E. coli JM109, pGEX-2T(ALS-wild); crude supernatant
T8 sequence (Q6K2E8 44-644): as the sequence (Q6K2E8 44-644 P171H) above, with H128P counted along it
Method: as §1, §2
as §3, with “control. […]” for “control.”

SMILES | RS ratio [1] | RS ratio [2] | RS ratio [3] | RS ratio [4] | RS ratio/ predicted RS ratio ([5]; P171H/R172S mutant) | RS ratio [5] | Predicted RS ratio ([5]; P171H/R172S mutant) | RS ratio [6] | Predicted RS ratio ([6]; P171H/W548L mutant) | RS ratio/ predicted RS ratio ([7]; P171H/S627I mutant) | RS ratio [7] | Predicted RS ratio ([7]; P171H/S627I mutant) | also measured
COc1cc(OC)nc(Sc2cccc(Cl)c2C(=O)O)n1 [pyrithiobac-sodium] | 3.4 | 1 | >9100 | 200 | 3.8 | 13 | 3.4 | >9100 | >31000 | 1.3 | 850 | 680 | IC50 [1]: 37 nM; IC50 [2]: 11 nM; inhibition at 100 µM ([3]; read-out: inhibition % at the highest concentration among the concentrations tested, W548L mutant, in 100 μM): 41%; IC50 [4]: 2200 nM; IC50 [5]: 140 nM; inhibition at 100 µM ([6]; read-out: inhibition % at the highest concentration among the concentrations tested, P171H/W548L mutant, in 100 μM): 20%; IC50 [7]: 9400 nM
CON=C(C)c1cccc(Oc2nc(OC)cc(OC)n2)c1C(=O)O [pyriminobac] | 5 | 1.2 | 4500 | 2800 | 0.85 | 5.1 | 6 | >13000 | 23000 | >0.93 | >13000 | 14000 | IC50 [8]: 8 nM; IC50 ([1]; P171H mutant, 37° C., 30 minutes, 10 mM valine, read-out: I50): 40 nM; IC50 ([2]; R172S mutant, 37° C., 30 minutes, 10 mM valine, read-out: I50): 9.2 nM; IC50 ([3]; W548L mutant, 37° C., 30 minutes, 10 mM valine, read-out: I50): 36000 nM; IC50 ([4]; S627I mutant, 37° C., 30 minutes, 10 mM valine, read-out: I50): 22000 nM; IC50 ([5]; P171H/R172S mutant, 37° C., 30 minutes, 10 mM valine, read-out: I50): 41 nM; RS ratio/ predicted RS ratio ([6]; P171H/W548L mutant): >0.57; inhibition % at the highest concentration among the concentrations tested ([6]; P171H/W548L mutant, in 100 μM): 11%; inhibition % at the highest concentration among the concentrations tested ([7]; P171H/S627I mutant, in 100 μM): 21%
